test system: Nrf2; experiment: Expression of Nrf2-regulated genes GCLM and NQO1 by qRT-PCR in Beas-2B cells (screen); type: cell-based, human; details: 10 μM, 16 h, DMSO = 1.0 (Table 2)
Description: To investigate the potency of the presently disclosed chalcone derivatives to activate Nrf2, the expression of antioxidant genes, GCLM and NADPH-NQO1, two well characterized transcriptional targets of Nrf2, were measured as surrogate markers. By “marker” is meant any protein or polynucleotide having an alteration in expression level or activity that is associated with a disease, disorder, or condition. It has been previously shown that oxidants or small molecule activators of Nrf2 increase GCLM and NQO1 in cells or tissues of wild-type, but not in Nrf2-deficient mice. Osburn, W. O., et al., Genetic or pharmacologic amplification of Nrf2 signaling inhibits acute inflammatory liver injury in mice. Toxicol. Sci. 2008, 104(1), 218-227. […]
RNA was isolated and gene expression was measured after 16 h.
Total RNA was extracted from cells/tissue using Qiagen RNeasy kit (Qiagen Corporation, Valencia, Calif.) and reverse transcription was performed by using random hexamers and MultiScribe reverse transcriptase according to the manufacturer's recommendations (Applied Biosystems, Foster City, Calif., USA). Quantitative real-time RT-PCR analyses of Nrf2, NQO1, HO1, and GCLM were performed by using Assay-on-Demand primers and probe sets from Applied Biosystems. Assays were performed using the ABI 7000 Taqman system (Applied Biosystems, Foster City, Calif.). β-actin was used for normalization.

For COc1ccc(C(=O)/C=C/c2ccccc2)c(OC)c1OC [Compound 1k, (E)-3-phenyl-1-(2,3,4.trimethoxyphenyl)prop-2-en-1-one], the “Relative Fold Change GCLM” value was 2.4.

For COc1ccc(C(=O)/C=C/c2ccccc2)c(OC)c1OC [Compound 1k, (E)-3-phenyl-1-(2,3,4.trimethoxyphenyl)prop-2-en-1-one], the “Relative Fold Change NQO1” value was 2.4.

same assay, conditions: Homo sapiens, 16 h, DMSO = 1.0 (Table 2), read-out: Relative Fold Change GCLM

Going from COc1ccc(C(=O)/C=C/c2ccccc2)c(OC)c1 [Compound 1e, (E)-3-phenyl-1-(2,4-dimethoxyphenyl)prop-2-en-1-one] to COc1ccc(C(=O)/C=C/c2ccccc2)cc1OC [Compound 1h, (E)-3-phenyl-1-(3,4-dimethoxyphenyl)prop-2-en-1-one], the fold induction at 10 µM falls from 2.7 to 2.3.

same assay, conditions: Homo sapiens, 16 h, DMSO = 1.0 (Table 2), read-out: Relative Fold Change NQO1

First: COc1ccc(C(=O)/C=C/c2ccccc2)c(OC)c1 [Compound 1e, (E)-3-phenyl-1-(2,4-dimethoxyphenyl)prop-2-en-1-one]
Second: COc1ccc(C(=O)/C=C/c2ccccc2)cc1OC [Compound 1h, (E)-3-phenyl-1-(3,4-dimethoxyphenyl)prop-2-en-1-one]
The fold induction at 10 µM of the first is higher: 2.8 for the first, 2.5 for the second.

same assay, conditions: Homo sapiens, BEAS-2B, 16 h, DMSO = 1.0 (Table 2), read-out: Relative Fold Change GCLM

Compared with COc1ccccc1C(=O)/C=C/c1ccccc1 [Compound 1b, (E)-1-(2-methoxyphenyl)-3-phenylprop-2-en-1-one], COc1ccc(OC)c(C(=O)/C=C/c2ccccc2)c1 [Compound 1g, (E)-3-phenyl-1-(2,5-dimethoxyphenyl)prop-2-en-1-one] is lower in fold induction at 10 µM: 3.6 for the first, 3 for the second.

Compared with COc1cccc(C(=O)/C=C/c2ccccc2)c1 [Compound 1c, (E)-1-(3-methoxyphenyl)-3-phenylprop-2-en-1-one], COc1ccc(C(=O)/C=C/c2ccccc2)cc1 [Compound 1d, (E)-1-(4-methoxyphenyl)-3-phenylprop-2-en-1-one] is higher in fold induction at 10 µM: 1.5 for the first, 1.9 for the second.

Going from COc1cccc(OC)c1C(=O)/C=C/c1ccccc1 [Compound 1f, (E)-3-phenyl-1-(2,6-dimethoxyphenyl)prop-2-en-1-one] to COc1cc(OC)c(C(=O)/C=C/c2ccccc2)c(OC)c1 [Compound 1l, (E)-3-phenyl-1-(2,4,6-trimethoxyphenyl)prop-2-en-1-one], the fold induction at 10 µM rises from 2.5 to 3.1.

Compared with COc1cc(OC)cc(C(=O)/C=C/c2ccccc2)c1 [Compound 1i, (E)-3-phenyl-1-(3,5-dimethoxyphenyl)prop-2-en-1-one], COc1cc(C(=O)/C=C/c2ccccc2)cc(OC)c1OC [Compound 1j, (E)-3-phenyl-1-(3,4,5-trimethoxyphenyl)prop-2-en-1-one] is lower in fold induction at 10 µM: 3 for the first, 0.7 for the second.

Compared with O=C(/C=C/c1ccccc1C(F)(F)F)c1ccccc1 [Compound 2a, (E)-1-phenyl-3-(2-(trifluoromethyl)phenyl)prop-2-en-1-one], COc1cccc(C(=O)/C=C/c2ccccc2C(F)(F)F)c1 [Compound 2c, (E)-1-(3-methoxyphenyl)-3-(2-(trifluoromethyl)phenyl)prop-2-en-1-one] is higher in fold induction at 10 µM: 5 for the first, 5.6 for the second.

First: COc1ccc(C(=O)/C=C/c2ccccc2C(F)(F)F)cc1 [Compound 2d, (E)-1-(4-methoxyphenyl)-3-(2-(trifluoromethyl)phenyl)prop-2-en-1-one]
Second: COc1ccc(OC)c(C(=O)/C=C/c2ccccc2C(F)(F)F)c1 [Compound 2g, (E)-1-(2,5-dimethoxyphenyl)-3-(2-(trifluoromethyl)phenyl)prop-2-en-1-one]
The fold induction at 10 µM of the first is higher: 5.4 for the first, 4.4 for the second.

Compared with COc1ccc(C(=O)/C=C/c2ccccc2C(F)(F)F)cc1OC [Compound 2h, (E)-1-(3,4-dimethoxyphenyl)-3-(2-(trifluoromethyl)phenyl)prop-2-en-1-one], COc1cc(C(=O)/C=C/c2ccccc2C(F)(F)F)cc(OC)c1OC [Compound 2j, (E)-1-(3,4,5,S.trimethoxyphenyl)-3-(2-(trifluoromethyl)phenyl)prop-2-en-1-one] is lower in fold induction at 10 µM: 4.3 for the first, 3 for the second.

same assay, conditions: Homo sapiens, BEAS-2B, 16 h, DMSO = 1.0 (Table 2), read-out: Relative Fold Change NQO1

Compared with COc1ccccc1C(=O)/C=C/c1ccccc1 [Compound 1b, (E)-1-(2-methoxyphenyl)-3-phenylprop-2-en-1-one], COc1ccc(OC)c(C(=O)/C=C/c2ccccc2)c1 [Compound 1g, (E)-3-phenyl-1-(2,5-dimethoxyphenyl)prop-2-en-1-one] is lower in fold induction at 10 µM: 3.2 for the first, 2.6 for the second.

Compared with COc1cccc(C(=O)/C=C/c2ccccc2)c1 [Compound 1c, (E)-1-(3-methoxyphenyl)-3-phenylprop-2-en-1-one], COc1ccc(C(=O)/C=C/c2ccccc2)cc1 [Compound 1d, (E)-1-(4-methoxyphenyl)-3-phenylprop-2-en-1-one] is higher in fold induction at 10 µM: 2.4 for the first, 2.8 for the second.

Going from COc1cccc(OC)c1C(=O)/C=C/c1ccccc1 [Compound 1f, (E)-3-phenyl-1-(2,6-dimethoxyphenyl)prop-2-en-1-one] to COc1cc(OC)c(C(=O)/C=C/c2ccccc2)c(OC)c1 [Compound 1l, (E)-3-phenyl-1-(2,4,6-trimethoxyphenyl)prop-2-en-1-one], the fold induction at 10 µM falls from 1.9 to 1.8.

Compared with COc1cc(OC)cc(C(=O)/C=C/c2ccccc2)c1 [Compound 1i, (E)-3-phenyl-1-(3,5-dimethoxyphenyl)prop-2-en-1-one], COc1cc(C(=O)/C=C/c2ccccc2)cc(OC)c1OC [Compound 1j, (E)-3-phenyl-1-(3,4,5-trimethoxyphenyl)prop-2-en-1-one] is lower in fold induction at 10 µM: 2.4 for the first, 0.7 for the second.

Going from O=C(/C=C/c1ccccc1C(F)(F)F)c1ccccc1 [Compound 2a, (E)-1-phenyl-3-(2-(trifluoromethyl)phenyl)prop-2-en-1-one] to COc1cccc(C(=O)/C=C/c2ccccc2C(F)(F)F)c1 [Compound 2c, (E)-1-(3-methoxyphenyl)-3-(2-(trifluoromethyl)phenyl)prop-2-en-1-one], the fold induction at 10 µM falls from 5.3 to 4.3.

First: COc1ccc(C(=O)/C=C/c2ccccc2C(F)(F)F)cc1 [Compound 2d, (E)-1-(4-methoxyphenyl)-3-(2-(trifluoromethyl)phenyl)prop-2-en-1-one]
Second: COc1ccc(OC)c(C(=O)/C=C/c2ccccc2C(F)(F)F)c1 [Compound 2g, (E)-1-(2,5-dimethoxyphenyl)-3-(2-(trifluoromethyl)phenyl)prop-2-en-1-one]
The fold induction at 10 µM of the first is higher: 4.6 for the first, 2.7 for the second.

Going from COc1ccc(C(=O)/C=C/c2ccccc2C(F)(F)F)cc1OC [Compound 2h, (E)-1-(3,4-dimethoxyphenyl)-3-(2-(trifluoromethyl)phenyl)prop-2-en-1-one] to COc1cc(C(=O)/C=C/c2ccccc2C(F)(F)F)cc(OC)c1OC [Compound 2j, (E)-1-(3,4,5,S.trimethoxyphenyl)-3-(2-(trifluoromethyl)phenyl)prop-2-en-1-one], the fold induction at 10 µM rises from 2.7 to 3.1.

same assay, conditions: Homo sapiens, BEAS-2B, 16 h, DMSO = 1 (Table 3), read-out: Relative Fold Change GCLM

Going from O=C(/C=C/c1ccccc1C(F)(F)F)c1ccccc1 [Compound 2a, (E)-1-phenyl-3-(2-(trifluoromethyl)phenyl)prop-2-en-1-one] to COc1cccc(C(=O)/C=C/c2ccccc2C(F)(F)F)c1 [Compound 2c, (E)-1-(3-methoxyphenyl)-3-(2-(trifluoromethyl)phenyl)prop-2-en-1-one], the fold induction at 10 µM rises from 5 to 5.6.

For COc1ccc(C(=O)/C=C/c2ccccc2C(F)(F)F)cc1 [Compound 2d, (E)-1-(4-methoxyphenyl)-3-(2-(trifluoromethyl)phenyl)prop-2-en-1-one], the fold induction at 10 µM was 5.4.

same assay, conditions: Homo sapiens, BEAS-2B, 16 h, DMSO = 1 (Table 3), read-out: Relative Fold Change NQO1

First: O=C(/C=C/c1ccccc1C(F)(F)F)c1ccccc1 [Compound 2a, (E)-1-phenyl-3-(2-(trifluoromethyl)phenyl)prop-2-en-1-one]
Second: COc1cccc(C(=O)/C=C/c2ccccc2C(F)(F)F)c1 [Compound 2c, (E)-1-(3-methoxyphenyl)-3-(2-(trifluoromethyl)phenyl)prop-2-en-1-one]
The fold induction at 10 µM of the first is higher: 5.3 for the first, 4.3 for the second.

In the case of COc1ccc(C(=O)/C=C/c2ccccc2C(F)(F)F)cc1 [Compound 2d, (E)-1-(4-methoxyphenyl)-3-(2-(trifluoromethyl)phenyl)prop-2-en-1-one], the fold induction at 10 µM is reported as 4.6.

test system: Beas-2B cells; experiment: Cell viability / cytotoxicity (MTT assay) in Beas-2B cells; type: cell-based, human; details: 24 h, DMSO = 100
Description: Concurrent with the gene expression analysis, the cytotoxicity of the chalcone derivatives was determined using the MTT assay.
Mad. Chem. 2007, 15, 2952-2962. […] Four hours before the end of incubation, the medium was removed and 100 μL of MTT (5 mg/mL in serum free medium) was added to each well. The MTT was removed after 4 h, cells were washed with PBS, and 100 μL DMSO was added to each well to dissolve the water-insoluble MTT-formazan crystals. The absorbance was recorded at 570 nm in a plate reader (Molecular Devices, Sunnyvale, Calif.).

First: O=C(/C=C/c1ccccc1C(F)(F)F)c1ccccc1 [Compound 2a, (E)-1-phenyl-3-(2-(trifluoromethyl)phenyl)prop-2-en-1-one]
Second: COc1cccc(C(=O)/C=C/c2ccccc2C(F)(F)F)c1 [Compound 2c, (E)-1-(3-methoxyphenyl)-3-(2-(trifluoromethyl)phenyl)prop-2-en-1-one]
The “% Cell Viability” value of the first is higher: 144.8% for the first, 96.6% for the second.

With COc1ccc(C(=O)/C=C/c2ccccc2C(F)(F)F)cc1 [Compound 2d, (E)-1-(4-methoxyphenyl)-3-(2-(trifluoromethyl)phenyl)prop-2-en-1-one] the “% Cell Viability” value was 96%.

— patent US20140088052A1, “CHALCONE DERIVATIVES AS NRF2 ACTIVATORS” (THE JOHNS HOPKINS UNIVERSITY, priority 2011, published 2014)
